Experimental data as given in PubChem BioAssay (NCI).
Several values for one entry are separate records, joined by “and”; a condition that tells them apart may be missing. Equal values may be shown once.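 Five compound concentrations were applied to cells in 96-well plates for 48 hours; endpoints were derived by simple linear interpolation of the resulting dose-response curve. GI50 marks 50% less growth. TGI is the concentration that stops growth completely.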

Columns and labels:
Assay in all cases: inhibition of tumour cell growth, NCI panel, 48 h
HS 578T breast = system: HS 578T breast
T-47D breast = system: T-47D breast
NCI/ADR-RES ovarian = system: NCI/ADR-RES ovarian
MDA-MB-435 = system: MDA-MB-435
MCF7 breast = system: MCF7 breast
M19-MEL melanoma = system: M19-MEL melanoma
MDA-N = system: MDA-N

## Cc1cc(Nc2c3ccccc3nc3ccccc23)ccc1NS(C)(=O)=O
HS 578T breast
  GI50: 2.45 µM
  TGI: 11.7 µM
T-47D breast
  GI50: 5.51 µM
  TGI: 24.5 µM
NCI/ADR-RES ovarian
  GI50: 5.63 µM
  TGI: 52.5 µM
MDA-MB-435
  GI50: 4.26 µM
  TGI: 25.4 µM
MCF7 breast
  GI50: 3.99 µM
  TGI: 18.4 µM

## COc1cc(Nc2ncc(F)c(Nc3ccc4c(n3)NC(=O)C(C)(C)O4)n2)cc(OC)c1OC
HS 578T breast
  GI50: 0.218 µM and 0.787 µM
T-47D breast
  TGI: > 100 µM
NCI/ADR-RES ovarian
  GI50: > 10 µM
  TGI: > 10 µM
MDA-MB-435
  GI50: > 10 µM
  TGI: > 10 µM
MCF7 breast
  GI50: 3.93 µM
  TGI: > 10 µM

## Nc1nc2cc3ccc(C4CC(O)C(CO)O4)cc3cc2c(=O)[nH]1 (stereo unspecified)
HS 578T breast
  GI50: > 100 µM
  TGI: > 100 µM
T-47D breast
  GI50: > 100 µM
  TGI: > 100 µM
NCI/ADR-RES ovarian
  GI50: > 100 µM
  TGI: > 100 µM
MDA-MB-435
  GI50: > 100 µM
  TGI: > 100 µM
MCF7 breast
  GI50: > 100 µM
  TGI: > 100 µM

## CC(=O)[O-].[Mn+3].[O-]c1ccccc1C=NCCN=Cc1ccccc1[O-]
M19-MEL melanoma
  GI50: 44.2 µM
  TGI: > 100 µM

## O=C(O)c1cc2ccccc2c(N=Nc2cc(C(F)(F)F)ccc2Cl)c1O
HS 578T breast
  TGI: > 100 µM
T-47D breast
  TGI: > 100 µM
NCI/ADR-RES ovarian
  TGI: > 100 µM
MDA-MB-435
  TGI: > 100 µM
MCF7 breast
  TGI: > 100 µM
MDA-N
  TGI: > 100 µM

## Cc1[nH]c2ccccc2c1-c1cc(-c2cc(-c3c(C)[nH]c4ccccc34)nc(N)n2)nc(N)n1
HS 578T breast
  TGI: > 100 µM
T-47D breast
  TGI: > 100 µM
NCI/ADR-RES ovarian
  TGI: > 100 µM
MDA-MB-435
  TGI: > 100 µM
MCF7 breast
  TGI: > 100 µM
MDA-N
  TGI: > 100 µM

## CN(C)c1ncc(-c2ccc(C(F)(F)F)cc2)c(NC2CCCCCC2)n1
HS 578T breast
  GI50: 23.1 µM
  TGI: > 100 µM
T-47D breast
  GI50: 25 µM
  TGI: > 100 µM
NCI/ADR-RES ovarian
  GI50: 22.2 µM
  TGI: 80.6 µM
MDA-MB-435
  GI50: 24.8 µM
  TGI: > 100 µM
MCF7 breast
  GI50: 11.4 µM
  TGI: 24.9 µM

## COc1ccc(N/N=C(\CCN(C)C)c2ccccc2)cc1
M19-MEL melanoma
  TGI: 13.5 µM

## CS(=O)(=O)CCNCc1ccc(-c2ccc3ncnc(Nc4ccc(OCc5cccc(F)c5)c(C(F)(F)F)c4)c3c2)o1
HS 578T breast
  GI50: 3.88 µM
  TGI: 13.5 µM
T-47D breast
  GI50: 3.4 µM
  TGI: 7.74 µM
NCI/ADR-RES ovarian
  GI50: 5.54 µM
  TGI: 20.7 µM
MDA-MB-435
  GI50: 4.01 µM
  TGI: 7.68 µM
MCF7 breast
  GI50: 3.84 µM
  TGI: 7.74 µM

## O=Cc1ccc(-c2ccc(-c3nc4ccccc4o3)cc2)s1
T-47D breast
  GI50: 22.6 µM
  TGI: > 100 µM
NCI/ADR-RES ovarian
  GI50: 27.2 µM
  TGI: 79.4 µM
MDA-MB-435
  GI50: 24.1 µM
  TGI: 77.9 µM

## CN(C)C/C=C/C(=O)Nc1cc2c(Nc3ccc(F)c(Cl)c3F)ncnc2cc1OCCOC(F)F
HS 578T breast
  GI50: 0.764 µM
  TGI: 6.19 µM
T-47D breast
  GI50: < 0.0127 µM
  TGI: 0.458 µM
NCI/ADR-RES ovarian
  GI50: 0.499 µM
  TGI: 3.74 µM
MDA-MB-435
  GI50: 1.17 µM
  TGI: 6.63 µM
MCF7 breast
  GI50: 1.24 µM
  TGI: 10.1 µM

## Cc1nc([C@H]2CC[C@H]3[C@@H]4CCC5=CC(=O)CC[C@]5(C)[C@H]4CC[C@]23C)cs1
HS 578T breast
  GI50: > 66.1 µM
  TGI: > 100 µM
T-47D breast
  GI50: 1.83 µM
  TGI: > 100 µM
NCI/ADR-RES ovarian
  GI50: 3.63 µM
  TGI: > 100 µM
MDA-MB-435
  GI50: 5.02 µM
  TGI: > 100 µM
MCF7 breast
  GI50: 2.78 µM
  TGI: > 100 µM

## COC(=O)c1c(O)c([N+](=O)[O-])cc2c1c1c(n2Cc2ccccc2)C(=O)c2ccccc2C1=O
HS 578T breast
  GI50: 29.9 µM
  TGI: 92.4 µM
T-47D breast
  GI50: 11.8 µM
  TGI: 45.8 µM
NCI/ADR-RES ovarian
  GI50: 21.1 µM
  TGI: 68.5 µM
MDA-MB-435
  GI50: 6.28 µM
  TGI: 28 µM
MCF7 breast
  GI50: 5.86 µM
  TGI: 46.1 µM

## Fc1ccc(-c2ncn(C3CCNCC3)c2-c2ccnc(Oc3ccc(F)c(F)c3)n2)cc1
HS 578T breast
  GI50: 9.58 µM
  TGI: > 18.4 µM
T-47D breast
  GI50: 4.7 µM
  TGI: 10.2 µM
NCI/ADR-RES ovarian
  GI50: 8.83 µM
  TGI: > 25 µM
MDA-MB-435
  GI50: 6.44 µM
  TGI: > 15.5 µM
MCF7 breast
  GI50: 4.28 µM
  TGI: 8.27 µM

## C=C1c2[nH]c3ccccc3c2C2C(CC)C1CCN2C (stereo unspecified)
HS 578T breast
  TGI: > 100 µM
T-47D breast
  TGI: > 100 µM
NCI/ADR-RES ovarian
  TGI: > 100 µM
MDA-MB-435
  TGI: > 100 µM
MCF7 breast
  TGI: > 100 µM
MDA-N
  TGI: > 100 µM

## Cc1nc(CN2CCCCC2)c(O)c(=O)[nH]1
HS 578T breast
  TGI: > 100 µM
T-47D breast
  TGI: > 100 µM
NCI/ADR-RES ovarian
  TGI: > 100 µM
MDA-MB-435
  TGI: > 100 µM
MCF7 breast
  TGI: > 100 µM
MDA-N
  TGI: > 100 µM

## COC1=CC23CCCN2CCc2cc4c(cc2C3C1O)OCO4 (stereo unspecified)
HS 578T breast
  TGI: > 100 µM
T-47D breast
  TGI: > 100 µM
NCI/ADR-RES ovarian
  TGI: > 100 µM
MDA-MB-435
  TGI: > 100 µM
MCF7 breast
  TGI: > 100 µM

## CC#C/C(=N\OC[C@H]1COCCN1)c1ccc2ncnc(Nc3ccc(OCc4cccc(F)c4)c(Cl)c3)c2c1
HS 578T breast
  GI50: 1.89 µM
  TGI: 4.46 µM
T-47D breast
  GI50: 0.0582 µM
  TGI: 4.47 µM
NCI/ADR-RES ovarian
  GI50: 1.27 µM
  TGI: 2.87 µM
MDA-MB-435
  GI50: 1.67 µM
  TGI: 3.1 µM
MCF7 breast
  GI50: 1.57 µM
  TGI: 3.05 µM

## COc1ccc(/C=C2\CC(C)CC3C2=NN(C(C)=O)C3c2ccc(OC)cc2)cc1 (stereo unspecified)
HS 578T breast
  GI50: 22.1 µM
  TGI: 60.6 µM
T-47D breast
  GI50: 25.7 µM
  TGI: > 100 µM
NCI/ADR-RES ovarian
  GI50: 21.3 µM
  TGI: 73.2 µM
MDA-MB-435
  GI50: 19.9 µM
  TGI: 49.1 µM
MCF7 breast
  GI50: 20 µM
  TGI: 63.3 µM

## Cc1nccc2c3ccc(OCc4cn(-c5ccc(Cl)cc5)nn4)cc3n(CCCc3ccccc3)c12
HS 578T breast
  GI50: 0.844 µM
  TGI: 2.48 µM
T-47D breast
  GI50: 20.6 µM
  TGI: > 33.3 µM
NCI/ADR-RES ovarian
  GI50: 0.644 µM
  TGI: 1.72 µM
MDA-MB-435
  GI50: 2 µM
  TGI: > 33.3 µM
MCF7 breast
  GI50: 1.49 µM
  TGI: > 33.3 µM

## Cc1cc(O)c(C2=NN(c3ccc(S(N)(=O)=O)cc3)C(c3ccc(N(C)C)cc3)C2)c(C)c1Cl (stereo unspecified)
HS 578T breast
  GI50: 23 µM
  TGI: 62.3 µM
T-47D breast
  GI50: 5.72 µM
  TGI: 19.7 µM
NCI/ADR-RES ovarian
  GI50: 19.3 µM
  TGI: 76.4 µM
MDA-MB-435
  GI50: 13.4 µM
  TGI: 31 µM
MCF7 breast
  GI50: 6.55 µM
  TGI: 24.2 µM

## CCN(CC)CCCC(C)Nc1nc(C)cc(Nc2ccc3nc(C)cc(N)c3c2)n1 (stereo unspecified)
HS 578T breast
  GI50: 24.6 µM
  TGI: 65.1 µM
T-47D breast
  GI50: 28.6 µM
  TGI: 99.4 µM
NCI/ADR-RES ovarian
  GI50: > 100 µM
  TGI: > 100 µM
MDA-MB-435
  GI50: 14.5 µM
  TGI: 29.5 µM
MCF7 breast
  GI50: 31.2 µM
  TGI: 78.3 µM

## C[C@@H]1Cc2c([nH]c3ccccc23)[C@@H](c2c(F)cc(NC3CN(CCCF)C3)cc2F)N1CC(F)(F)CO
HS 578T breast
  GI50: 3.73 µM
  TGI: 19.1 µM
T-47D breast
  GI50: 1.06 µM
  TGI: 18.5 µM
NCI/ADR-RES ovarian
  GI50: 4.1 µM
  TGI: 16.6 µM
MDA-MB-435
  GI50: 3.89 µM
  TGI: 15.1 µM
MCF7 breast
  TGI: 4.27 µM

## CCN1C2=NCCN2S(=O)(=O)c2ccccc21
HS 578T breast
  TGI: > 100 µM
T-47D breast
  TGI: > 100 µM
NCI/ADR-RES ovarian
  TGI: > 100 µM
MDA-MB-435
  TGI: > 100 µM
MCF7 breast
  TGI: > 100 µM
MDA-N
  TGI: > 100 µM
